Literature values as cited in EP4106725B1, “WATER-SOLUBLE SOLID DISPERSION OF QUERCETIN, FORMS THEREOF, A METHOD OF OBTAINING THEREOF, USE OF ALKALINE AGENT, AND A KIT” ("Scientific Industrial Centre "Borshchahivskiy Chemical …, priority 2020, dated 2021).

Experiments:
[1] = crystalline dehydrated state and dihydrate

SMILES | pKa (acidity constant of the alkaline agent) | solubility in water [1] | acidity constant value pKa1 (hydroxylic group in 4'-position) | acidity constant value pKa2 (hydroxylic group in 7-position)
O=C([O-])[O-].[Na+].[Na+] [Na2CO3, sodium carbonate] | 10.33 |  |  | 
O=c1c(O)c(-c2ccc(O)c(O)c2)oc2cc(O)cc(O)c12 [quercetin, 2-(3,4-dihydroxyphenyl)-3,5,7-trihydroxy-4H-chromen-4-one] |  | ~ 1 mg/100 mL | 6.62 ± 0.04 | 9.7 ± 0.3
